According to US20250009713A1 (priority 2021, published 2025):

Columns and labels:
Assay type in all cases: cell-based
[1] = test system: SARS-COV-2 SouthAfrica/KRISP-K005325/2020 (beta variant; NR-54009); experiment: microbe, parasite or virus in culture; settings: Plaque, Calu-3, virus SA
[2] = test system: SARS-COV-2 England/204820464/2020 (alpha variant; NR-54000); experiment: microbe, parasite or virus in culture; settings: PCR, Calu-3, virus UK
[3] = test system: SARS-COV-2 US-PHC658/2021 (delta variant; NR-55611); experiment: microbe, parasite or virus in culture; settings: PCR, Vero, virus Delta
[4] = test system: SARS-COV-2 England/204820464/2020 (alpha variant; NR-54000); experiment: microbe, parasite or virus in culture
[5] = test system: SARS-COV-2 USA/MD-HP20874/2021 (omicron variant; NR-56461); experiment: microbe, parasite or virus in culture; settings: PCR, Calu-3, virus Omicron
[6] = test system: SARS-COV-2 US-PHC658/2021 (delta variant; NR-55611); experiment: microbe, parasite or virus in culture; settings: PCR, Calu-3, virus Delta
[7] = test system: SARS-COV-2 England/204820464/2020 (alpha variant; NR-54000); experiment: microbe, parasite or virus in culture; settings: Plaque, Vero, virus UK
[8] = test system: SARS-COV-2 USA/MD-HP20874/2021 (omicron variant; NR-56461); experiment: microbe, parasite or virus in culture; settings: Plaque, Vero, virus Omicron
[9] = test system: SARS-COV-2 USA/MD-HP20874/2021 (omicron variant; NR-56461); experiment: microbe, parasite or virus in culture; settings: PCR, Vero, virus Omicron
[10] = test system: SARS-COV-2 SouthAfrica/KRISP-K005325/2020 (beta variant; NR-54009); experiment: microbe, parasite or virus in culture; settings: Plaque, Vero, virus SA
[11] = test system: SARS-COV-2 England/204820464/2020 (alpha variant; NR-54000); experiment: microbe, parasite or virus in culture; settings: Plaque, Calu-3, virus UK
[12] = test system: SARS-COV-2 strain US (US-WA1/2020); experiment: plaque assay, strain US, summary over cell types; settings: Severe acute respiratory syndrome coronavirus 2, two-way ANOVA estimate
[13] = test system: SARS-COV-2 USA/MD-HP20874/2021 (omicron variant; NR-56461); experiment: microbe, parasite or virus in culture; settings: Plaque, Calu-3, virus Omicron
[14] = test system: SARS-COV-2 US-PHC658/2021 (delta variant; NR-55611); experiment: microbe, parasite or virus in culture; settings: Plaque, Vero, virus Delta
[15] = test system: SARS-COV-2 US-PHC658/2021 (delta variant; NR-55611); experiment: microbe, parasite or virus in culture; settings: Plaque, Calu-3, virus Delta
[16] = test system: SARS-COV-2 SouthAfrica/KRISP-K005325/2020 (beta variant; NR-54009); experiment: microbe, parasite or virus in culture
[17] = test system: SARS-COV-2 SouthAfrica/KRISP-K005325/2020 (beta variant; NR-54009); experiment: microbe, parasite or virus in culture; settings: PCR, Calu-3, virus SA
[18] = Severe acute respiratory syndrome coronavirus 2, m.o.i 0.1, […]
[19] = PCR, Vero, virus UK, log-logistic curve fit
[20] = Severe acute respiratory syndrome coronavirus 2, Vero
[21] = PCR, Vero, virus SA, log-logistic curve fit

## Cn1cc(-c2cccc3cc(C(=O)NC(=N)N)ccc23)cn1 [BIT225, N-carbamimidoyl-5-(1-methyl-1H-pyrazol-4-yl)-2-naphthamide]
[1]; log-logistic curve fit
  Max. Response (d): 3.52 log10
  Slope (b): 1.34 nmol⁻¹
[1]; [18]
  EC50: 6.79 µM
[2]; log-logistic curve fit
  Max. Response (d): 2.58 log10
  Slope (b): 1.21 nmol⁻¹
[2]; [18]
  EC50: 2.86 µM
[3]; log-logistic curve fit
  Max. Response (d): 3.55 log10
  Slope (b): 1.15 nmol⁻¹
[3]; [18]
  EC50: 3.59 µM
[4]; [19]
  Max. Response (d): 3.58 log10
  Slope (b): 1.07 nmol⁻¹
[4]; [20]
  EC50: 4.56 µM
[5]; log-logistic curve fit
  Max. Response (d): 2.57 log10
  Slope (b): 1.08 nmol⁻¹
[5]; [18]
  EC50: 4.37 µM
[6]; log-logistic curve fit
  Max. Response (d): 2.56 log10
  Slope (b): 1.08 nmol⁻¹
[6]; [18]
  EC50: 4.81 µM
[7]; log-logistic curve fit
  Max. Response (d): 6.41 log10
[7]; [18]
  EC50: 6.7 µM
[8]; log-logistic curve fit
  Max. Response (d): 6.31 log10
  Slope (b): 1.41 nmol⁻¹
[8]; [18]
  EC50: 6.5 µM
[9]; log-logistic curve fit
  Max. Response (d): 3.51 log10
  Slope (b): 1.22 nmol⁻¹
[9]; [18]
  EC50: 3.37 µM
[10]; log-logistic curve fit
  Slope (b): 1.50 nmol⁻¹
[10]; [18]
  EC50: 7.26 µM
[11]; log-logistic curve fit
  Max. Response (d): 3.43 log10
  Slope (b): 1.15 nmol⁻¹
[11]; [18]
  EC50: 5.72 µM
[12]
  EC50: 3.8 µM
[13]; log-logistic curve fit
  Max. Response (d): 3.42 log10
  Slope (b): 1.11 nmol⁻¹
[13]; [18]
  EC50: 7.61 µM
[14]; log-logistic curve fit
  Max. Response (d): 6.45 log10
  Slope (b): 1.48 nmol⁻¹
[14]; [18]
  EC50: 6.65 µM
[15]; log-logistic curve fit
  Max. Response (d): 3.44 log10
  Slope (b): 1.00 nmol⁻¹
[15]; [18]
  EC50: 7.9 µM
[16]; [21]
  Max. Response (d): 3.52 log10
  Slope (b): 1.28 nmol⁻¹
[16]; [20]
  EC50: 2.65 µM
[17]; log-logistic curve fit
  Max. Response (d): 2.67 log10
  Slope (b): 1.07 nmol⁻¹
[17]; [18]
  EC50: 4.17 µM
